Source: ChEMBL document CHEMBL2074417, “The bisbenzylisoquinoline alkaloids, tetrandine and fangchinoline, enhance the cytotoxicity of multidrug resistance-related drugs via modulation of P-glycoprotein” (Anticancer Drugs, 1998)

What was measured:
[1] = target: T1, ATP-dependent translocase ABCB1 (Homo sapiens, UniProt P08183); experiment: TP_TRANSPORTER: increase in Rhodamine 123 intracellular accumulation (R123: 4 uM, Tetrandine: 3 uM) in HCT15 cells; assay type: functional, cell-based; settings: hct-15, 3 µM
T1 sequence (P08183 whole entry): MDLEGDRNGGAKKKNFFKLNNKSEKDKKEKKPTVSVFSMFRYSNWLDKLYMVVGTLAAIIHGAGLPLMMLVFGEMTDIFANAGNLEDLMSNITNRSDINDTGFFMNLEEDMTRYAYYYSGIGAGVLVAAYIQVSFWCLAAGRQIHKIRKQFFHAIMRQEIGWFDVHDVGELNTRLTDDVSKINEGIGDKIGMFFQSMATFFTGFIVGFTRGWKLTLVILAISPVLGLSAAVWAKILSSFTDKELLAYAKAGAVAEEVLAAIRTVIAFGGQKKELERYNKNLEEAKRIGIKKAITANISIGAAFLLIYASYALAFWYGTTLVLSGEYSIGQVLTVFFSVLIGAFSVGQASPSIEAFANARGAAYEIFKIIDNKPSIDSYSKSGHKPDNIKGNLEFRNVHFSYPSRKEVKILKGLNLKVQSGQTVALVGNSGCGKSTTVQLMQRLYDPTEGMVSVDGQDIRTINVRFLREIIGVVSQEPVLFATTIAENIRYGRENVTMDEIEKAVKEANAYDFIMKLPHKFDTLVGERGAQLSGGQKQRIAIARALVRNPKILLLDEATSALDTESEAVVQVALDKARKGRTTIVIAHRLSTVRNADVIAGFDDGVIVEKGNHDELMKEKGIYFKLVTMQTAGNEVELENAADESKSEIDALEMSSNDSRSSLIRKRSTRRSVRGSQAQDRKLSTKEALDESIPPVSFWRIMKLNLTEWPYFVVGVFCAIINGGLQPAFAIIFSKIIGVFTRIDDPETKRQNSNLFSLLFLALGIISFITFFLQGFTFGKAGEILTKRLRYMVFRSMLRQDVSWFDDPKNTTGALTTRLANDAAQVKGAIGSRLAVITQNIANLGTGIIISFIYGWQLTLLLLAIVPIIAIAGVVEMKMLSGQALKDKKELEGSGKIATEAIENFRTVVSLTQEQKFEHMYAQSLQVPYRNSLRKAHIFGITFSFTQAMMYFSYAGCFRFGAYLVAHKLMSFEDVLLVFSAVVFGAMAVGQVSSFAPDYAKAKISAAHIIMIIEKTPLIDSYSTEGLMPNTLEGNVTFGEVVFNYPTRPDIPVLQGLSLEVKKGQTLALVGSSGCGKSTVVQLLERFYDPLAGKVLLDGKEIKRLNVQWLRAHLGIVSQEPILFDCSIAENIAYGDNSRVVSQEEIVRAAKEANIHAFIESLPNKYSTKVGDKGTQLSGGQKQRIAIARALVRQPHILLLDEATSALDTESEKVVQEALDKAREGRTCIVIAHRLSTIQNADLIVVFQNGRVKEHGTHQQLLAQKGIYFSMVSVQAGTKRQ

[2] = target: T1, ATP-dependent translocase ABCB1; experiment: TP_TRANSPORTER: increase in Rhodamine 123 intracellular accumulation (R123: 4 uM, Fangchinoline: 3 uM) in HCT15 cells; assay type: functional, cell-based; settings: hct-15, 3 µM

SMILES	Activity [1] [fold]	Activity [2] [fold]
COc1ccc2cc1Oc1ccc(cc1)C[C@H]1c3cc(c(OC)cc3CCN1C)Oc1c(OC)c(OC)cc3c1[C@H](C2)N(C)CC3 [FANCHININ]	2.5	
COc1ccc2cc1Oc1ccc(cc1)C[C@H]1c3cc(c(OC)cc3CCN1C)Oc1c(O)c(OC)cc3c1[C@H](C2)N(C)CC3 [FANGCHINOLINE]		2.4
